According to US6599706B1, “Recombinant PR-3 and assays employing the same” (Chiron Corporation, priority 1994, dated 2003):
pIC50: −log10 of the molar value. “Also recorded” adds a separate entry of the source. One block for each molecule: values may come before it.

What was measured:
[1] = target: T1, TNFα convertase from HL60 cells (Homo sapiens, UniProt P24158); experiment: 35S-labelled 26 kD TNFα in vitro transcription/translation autoradiographic convertase assay with HL60 convertase (P-30 fraction); format: biochemical; conditions: 30° C., 1 hour, SDS-PAGE autoradiography
T1 construct: solution containing convertase activity partially purified from uninduced HL60 cells; endogenous in cells
T1 sequence (P24158 28-248): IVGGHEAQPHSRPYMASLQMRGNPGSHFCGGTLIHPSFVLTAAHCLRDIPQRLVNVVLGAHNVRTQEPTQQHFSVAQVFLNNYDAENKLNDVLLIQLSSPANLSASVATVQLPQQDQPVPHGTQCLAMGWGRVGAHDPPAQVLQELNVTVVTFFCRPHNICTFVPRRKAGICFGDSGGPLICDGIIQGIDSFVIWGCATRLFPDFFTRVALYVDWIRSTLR
Excerpt: A preferred assay procedure consists of in vitro transcription/translation to produce the 26 kD molecule, followed by treatment with convertase in the presence or absence of compounds being tested for convertase inhibitory activity. The procedure entails in vitro transcription/translation of the TNFα cDNA present in the pGEM vector. Thus, the sequence was removed from pB11 by Pst I digestion and was inserted into the Pst I site of pGEM-3 (obtainable from Promega Biotec, Madison Wis.). The resulting plasmid, termed pGEM-TNFα14, was amplified in E. coli using established techniques, and plasmid DNA was prepared according to the procedure of Birnboim and Doly, described above. Plasmid DNA was transcribed in vitro by linearizing it with Hind III, and the linearized plasmid templates were used to prepare capped transcripts with T7 RNA polymerase and an in vitro transcription kit supplied by Promega Biotec (Madison, Wis.).
The mRNA produced above was translated in vitro in the presence of ^35S-cysteine to produce ^35S-cysteine-labelled 26 kD TNFα. A rabbit reticulocyte lysate translation kit was used, also supplied by Promega Biotec, and the conditions recommended by the manufacturer were followed.
^35S-cysteine-labelled 26 kD TNFα was used to assay for convertase inhibitors as follows. 25 μl of in vitro translated material was combined with 250 μl of solution containing convertase activity partially purified from uninduced HL60 cells, plus compounds to be assayed for inhibitory activity. The convertase was produced by harvesting 2×10^9 HL60 cells, disrupting the cells, and isolating S-1 (supernatant fluid from a 100,000 ×g centrifugation) and P-30 (pellet from a 30,000×g centrifugation) fractions totalling 18 and 6 ml, respectively. 250 μl of the P-30 fraction was used, although the S-1 fraction may also be used. The assay was carried out at 30° C. for 1 hour, essentially as described above. Next, the reaction mixture was immunoprecipitated with rabbit anti-human TNFα polyclonal antisera (produced from TNFα made in E. coli) and protein A Sepharose, pelleted and washed. […]

[2] = target: T2, TNFα convertase/PR-3 (purified native PR-3) (Homo sapiens, UniProt P24158); experiment: Colorimetric Boc-Ala-ONp assay for convertase inhibition; format: biochemical; conditions: for inhibition of TNFα convertase/PR-3 activity: 35 μM
T2 construct: from tissue; host or cells: human blood neutrophils
T2 sequence (P24158 28-248): T1 sequence (P24158 28-248)
Procedure: TNFα convertase inhibition can also be measured by a colorimetric assay. In this type of assay, the actual activity of TNFα convertase is measured directly using a colorimetric TNFα convertase substrate. […] One such substrate is Boc-Ala-ONp (Bachem Bioscience, Inc., Philadelphia, Pa.). Other potentially useful substrates can be predicted from the structure of TNFα convertase and other serine proteases. Although the example herein uses purified native PR-3 as the TNFα convertase, it is contemplated that recombinant PR-3 or other TNFα convertases can be used in this assay as well.
Peptide diphenyl phosphonate inhibitors were synthesized and stored as lyophilized solids as described in Oleksyszyn and Powers, Biochem 30:485-493 (1991). Inhibitor solutions (10 mg/ml) were prepared in 100% dimethyl sulfoxide (DMSO) and diluted into aqueous buffers upon initiation of the experiments. 3,4, dichloro-isocoumarin was purchased from CalBiochem. Purified PR-3 (10 μl, 0.1 mg/ml) was mixed with varying concentrations of protease inhibitor ([…]) in 20 mM sodium phosphate buffer, pH 7.0, containing 0.1 M sodium chloride. Aliquots (40 μl) were removed at selected times and diluted 1/10 into a colorimetric assay for convertase, containing 0.5-1 mM Boc-Ala-ONp (prepared fresh from a 50 mM stock in 100% methanol) in 0.02 M sodium phosphate buffer, pH 7.0, 0.1 M sodium chloride. The increase in absorbance was monitored at 347 nm on a Hewlett Packard 8450A spectrophotometer, and using an extinction coefficient of 5.5×10^3 M^−1cm^−1 to calculate units of enzyme activity.
The peptide diphenyl phosphonates were tested in the colorimetric assay described in Example 3, for inhibition of TNFα convertase/PR-3 activity.

recombinant PR-3 (rPR-3) = target: T3, recombinant PR-3 (rPR-3) (Homo sapiens, UniProt P24158); experiment: Residual recombinant PR-3 activity with Boc-Ala-ONp substrate; format: biochemical
T3 construct: made in house; host or cells: Sf9 insect cells (baculovirus, pAcC13preproPR-3)
T3 sequence (P24158 28-248 limits assumed): T1 sequence (P24158 28-248)
Procedure: Cytoplasmic anti-neutrophil cytoplasmic antibodies (c-ANCA) are human polyclonal antibodies derived from patients with Wegener's granulomatosis. […] Protein-A-purified human c-ANCA (supplied by Dr. Erik Hack, The Netherlands) was mixed with purified recombinant PR-3 (SEQ ID NO: 23) prepared as described above at various molar ratios of antibody to enzyme, and after incubation for 1 hour at 37° C., residual enzyme activity was measured using the Boc-Ala-ONp substrate as described in Example 4.
The two peptide diphosphonate inhibitors, Boc-Ala-Pro-Val-(OPh)2 and Boc-Val-Pro-Val-(OPh)2, were mixed at various concentrations with 125 ng of rPR-3 (prepared as described above) and incubated for 1 hour at 25° C. The residual enzyme activity was measured using the Boc-Ala-ONp substrate and compared to the same amount of enzyme incubated in the absence of inhibitor. Under these conditions, the Boc-Ala-Pro-Val-(OPh)2 inhibited PR-3 with an IC50 of about 10 μM and the Boc-Val-Pro-Val-(OPh)2 inhibited PR-3 with an IC50 of about 0.4 μM. […] Thus, recombinant PR-3 may be employed in detection of useful inhibitors of native PR-3.

PR-3 = target: T4, PR-3 (Homo sapiens, UniProt P24158); experiment: Inhibition of PR-3, summary statement of the assays shown below; format: biochemical
T4 sequence (P24158 28-248): T1 sequence (P24158 28-248)
Excerpt: As shown below, PR-3 is inhibited by peptide diphenyl phosphonate inhibitors, elastinal, and dichloro-isocoumarin (DCI). The peptide diphenyl phosphonate inhibitors include Boc-Val-Pro-Val-p(OPh)2 and Boc-Ala-Pro-Val-p(OPh)2 (BOC-butoxycarbonyl). […] “Boc” means N-tert-butoxycarbonyl and “p(OPh)2” represents the diphenyl phosphonate moiety, wherein the formula—COOH group is replaced with P(=0)-(O-phenyl)2. See Oleksyszyn et al., Biochem 30:485 (1991). It will be appreciated that other peptide diphenyl phosphonate molecules may inhibit PR-3. Potential inhibitors may be constructed using the procedures shown in Oleksyszyn et al., supra, using small aliphatic peptides, for an example. Once the potential inhibitors are made, they may be tested in the assays shown below.

[3] = target: T5, purified native PR-3 from human neutrophils (Homo sapiens, UniProt P24158); experiment: 35S-labelled 26 kD TNFα autoradiographic convertase assay with purified native PR-3; format: biochemical; conditions: 45 μM; PR-3 0.3 μg/ml preincubated 30 minutes
T5 construct: from tissue; host or cells: human blood neutrophils
T5 sequence (P24158 28-248): T1 sequence (P24158 28-248)
Procedure: ^35S-cysteine-labelled 26 kD TNFα was used to assay for convertase inhibitors as follows. 25 μl of in vitro translated material was combined with 250 μl of solution containing convertase activity partially purified from uninduced HL60 cells, plus compounds to be assayed for inhibitory activity. The convertase was produced by harvesting 2×10^9 HL60 cells, disrupting the cells, and isolating S-1 (supernatant fluid from a 100,000 ×g centrifugation) and P-30 (pellet from a 30,000×g centrifugation) fractions totalling 18 and 6 ml, respectively. 250 μl of the P-30 fraction was used, although the S-1 fraction may also be used. The assay was carried out at 30° C. for 1 hour, essentially as described above. Next, the reaction mixture was immunoprecipitated with rabbit anti-human TNFα polyclonal antisera (produced from TNFα made in E. coli) and protein A Sepharose, pelleted and washed. The bound protein was eluted and electrophoresed using SDS-PAGE. The gel was fixed in 40% methanol, 10% acetic acid, soaked in Enlightening (Dupont), dried, and exposed to X-ray film which was subsequently developed.
The above assay was also used with purified native PR-3 from human neutrophils to test a variety of proteinase inhibitors for their ability to inhibit TNFα convertase activity, as shown in FIG. 5. Purified PR-3 (0.3 μg/ml) was preincubated for 30 minutes with the following inhibitors prior to addition of ^35S-labelled 26 kD-TNFα, and then assayed as described above: DCI (45 μM), α-2-macroglobulin (1 mg/ml), PMSF (20 μM), leupeptin (2 μg/ml), EDTA (10 mM), or pepstatin (2 μg/ml).

[4] = tested on: TNFα release from mouse macrophages; experiment: LPS-induced TNFα secretion by adherent peritoneal macrophages (ELISA); format: cell-based
Procedure: (§1) Release of TNFα by macrophages after stimulation by LPS is a major source of TNFα in the host. In these studies peritoneal macrophages were purified by adhesion, cultured in 24 well plates, and LPS was added to induce secretion of TNFα. […] DCI was then added in dimethyl sulfoxide vehicle to cultures. The control cultures had DMSO alone added in equivalent concentrations. Supernatants were collected and assayed for TNFα and IL-6. […] [table]

[5] = tested on: IL-6 release from mouse macrophages; experiment: LPS-induced IL-6 secretion by adherent peritoneal macrophages (B9 bioassay); format: cell-based
Procedure: as §1

[6] = Stability and formulation studies in corn oil; format: physicochemical; conditions: dissolved in corn oil
Excerpt: (§2) This represented a maximal tolerated dose of DCI that could be administered.

mice = experiment: Toxicity of DCI/oil injected into mice; format: in vivo, mouse; conditions: injection of DCI/oil into mice
Excerpt: as §2

serum TNFα = experiment: Serum TNFα in mice injected with a lethal dose of LPS; format: in vivo, mouse; conditions: DCI injected 1 hour before lethal LPS dose; ELISA and L929 lysis
Excerpt: (§3) The kinetics of induction TNFα and IL-6 in mice injected with a lethal dose of LPS was studied. […] Also, there was a delayed increase in TNFα measured up to the 6-hour time point. This was true for both immunoreactive mouse TNFα measured by ELISA and bioactive YNFα measured by lysis of L929 cells. IL-6 levels were not reduced by this therapy.

serum IL-6 = experiment: Serum IL-6 in mice injected with a lethal dose of LPS; format: in vivo, mouse; conditions: DCI injected 1 hour before lethal LPS dose
Excerpt: as §3

mice injected with LPS = experiment: Survival of mice injected with a lethal dose of LPS; format: in vivo, mouse
Procedure: The effect of DCI on survival of mice injected with a dose of LPS that results in 100% death of animals by 24 hours was also investigated.

[7] = LPS-stimulated peritoneal macrophages, versus DMSO vehicle

inhibition of convertase activity (conversion of 26 kD TNFα) ([1]; 1 mM): inhibits convertase activity
SMILES: CO[C@@H]1C(=O)N2C(C(=O)N3CCOCC3)=C(COC(C)=O)CS(=O)(=O)[C@H]12 (relative stereo) [(1-((3-((acetyloxyl)-7-methoxy-8-oxy-8-oxo-5-thio-1-azabicyclo [4.2.0]oct-2-en-2-yl)carbonyl)morpholine, S, S-dioxide, (6R-cis)]

SMILES: CC(C)C(NC(=O)[C@@H]1CCCN1C(=O)[C@H](C)NC(=O)OC(C)(C)C)P(=O)(Oc1ccccc1)Oc1ccccc1 (stereo partly drawn) [APV, Boc-Ala-Pro-Val-p(OPh)2]
inhibition of TNFα convertase/PR-3 activity [2]: demonstrated inhibitory activity | pIC50 (recombinant PR-3 (rPR-3)): ~5.00 | inhibition of PR-3 (PR-3): inhibited

inhibition of TNFα convertase/PR-3 activity [2]: marginal, if any inhibition | inhibition of PR-3 (PR-3): much less inhibitory activity
SMILES: CC(NC(=O)OC(C)(C)C)C(=O)NC(CCC(N)=O)C(=O)NC(C)P(=O)(Oc1ccccc1)Oc1ccccc1 (stereo not drawn) [AQA, Boc-Ala-Gln-Ala-p(OPh)2]

SMILES: O=c1oc(Cl)c(Cl)c2ccccc12 [DCI, 3,4 dichloroisocoumarin]
inhibition of the convertase (conversion of 26 kD TNFα) ([1]; 100 pg/ml): inhibit the convertase | inhibition of TNFα convertase activity of purified PR-3 [3]: significant inhibitory activity | inhibition at 95 µM ([2]; 95 μM): 100% | TNFα ([4]; DCI 20 μg/ml, macrophages 10^6/ml with LPS, 3 hours, ELISA): 0.05 ng/mL | TNFα secretion [4, 7]: markedly suppressed | IL-6 ([5]; DCI 20 μg/ml, macrophages 10^6/ml with LPS, 3 hours, B9 bioassay): 189 pg/mL | IL-6 response [5, 7]: not significantly altered | stability [6]: stable and retained serine protease inhibitor activity | LD 50% (mice): 1 mg/mL | serum TNFα (serum TNFα): marked inhibition; also recorded: decreased | IL-6 levels (serum IL-6): not reduced | dose response of survival effect (mice injected with LPS; 0.75 mg of DCI compared with 0.5 mg): more effective than 0.5 mg | survival (mice injected with LPS; prophylactic DCI, LPS dose giving 100% death by 24 hours): prolong survival | inhibition of PR-3 (PR-3): inhibited

inhibition of TNFα convertase/PR-3 activity [2]: marginal, if any inhibition | inhibition of PR-3 (PR-3): much less inhibitory activity
SMILES: CC(C)CC(NC(=O)OC(C)(C)C)C(=O)NC(C)C(=O)NC(CCC(N)=O)C(=O)NC(C)P(=O)(Oc1ccccc1)Oc1ccccc1 (stereo not drawn) [LAQA, Boc-Leu-Ala-Gln-Ala-p(OPh)2]
